Data: patent US5756301A, “Endogenous taxol-like substance in human serum, monoclonal antibodies directed thereto and methods of assaying therefor” (The Trustees of Columbia University in the City of New York, priority 1993, dated 1998)
Entries after “also recorded” stand apart in the source; their conditions may differ. Where two headings read alike, the source gives them in different places. Values belong to the compound of their own block, whether it stands above or below them.

Experiments:
KB cells = settings: cited from earlier work
29B7B3C = experiment: Competitive ELISA, inhibition of binding of 29B7B3C to taxol-RSA; design: species or system mouse
Description: (§1) Spleen cells were fused with nonsecreting myeloma cells P3 ×63-Ag8.653 (13), according to the method of Sharon et al. (14). […] Clones positive by competitive ELISA were subcloned twice by limiting dilution. Ascites were obtained by injecting 10^6 to 10^7 cells i.p. into BALB/c mice that had been primed with IFA i.p. 5 days before.
(§2) The wells were washed with PBS-T-20 three times and blocked with 200 ul of PBS, containing 1% fetal calf serum, for 1 hour at 37° C. […] After washing four times with PBS-T-20, bound antibodies were detected with 100 ul of 1/3000 dilution of peroxidase-labeled goat anti-mouse IgG+IgM in PBS-T-20 for 1 hour at 37° C. Color was developed and absorbance was measured as described above.

69E4A8E = experiment: Competitive ELISA, inhibition of binding of 69E4A8E to taxol-RSA; design: species or system mouse
Description: as §1, §2

[1] = test system: rabbit anti-taxol antiserum; experiment: RIA: inhibition of binding of rabbit anti-taxol antiserum to [3H]taxol; settings: for Affinity of rabbit antibodies (in words): [3H]taxol
Description: (§3) Bound ligand was separated from free by the addition of 100 ul of a 2.5% dextran-coated charcoal solution in RIA buffer, incubation for 3 min at 4° C. and centrifugation in an Eppendorf centrifuge for 2 min.

[2] = test system: antibodies specific for taxol (one rabbit antiserum and two monoclonal antibodies); experiment: Binding to all of the antibodies (rabbit antiserum, 69E4A8E, 29B7B3C); design: species or system rabbit; mouse; settings: 69E4A8E and 29B7B3C
Description: as §2, with “Polystyrene microplates were coated with 100 ul of taxol-RSA (250ng/ml) in 0.1 M sodium bicarbonate, pH=9.3, overnight at 4° C. The” for “The”
as §3

[3] = read-out: Peak taxol level in plasma; 200 to 250 mg/m^2 infusion over 24 hours; cited from earlier work
[4] = test system: ovarian and breast cancer and melanoma; settings: clinical trials; cited from earlier work
[5] = clinical trials; cited from earlier work
microtubules / tubulin = settings: cited from earlier work
tumor = settings: cited from earlier work
[6] = relative to taxol = 1, data from reference 10

SMILES: CC[Si](CC)(CC)O[C@@H](C(=O)O[C@H]1C[C@@]2(O)[C@@H](OC(=O)c3ccccc3)[C@@H]3[C@]4(OC(C)=O)CO[C@@H]4C[C@H](O)[C@@]3(C)C(=O)[C@H](OC(C)=O)C(=C1C)C2(C)C)[C@@H](NC(=O)c1ccccc1)c1ccccc1 [2'-(Triethylsiyl) taxol, 2'-(triethylsilyl)taxol]
Relative IC50, cytotoxicity (KB cells) (KB cells; human): 30,000

SMILES: CC(=O)O[C@H]1C(=O)[C@]2(C)[C@H](O)C[C@H]3OC[C@@]3(OC(C)=O)[C@H]2[C@H](OC(=O)c2ccccc2)[C@]2(O)C[C@H](OC(=O)[C@H](O)[C@@H](NC(=O)c3ccccc3)c3ccccc3)C(C)=C1C2(C)C [7-Epitaxol, 7-epitaxol]
Binding affinity of 29B7B3C (in words) (29B7B3C; competitive ELISA): higher binding affinities
Binding affinity / recognition by 69E4A8E (in words) (69E4A8E; competitive ELISA): higher binding affinities

SMILES: CC(=O)O[C@@]12CO[C@@H]1C[C@H](O)[C@@]1(C)C(=O)[C@H](O)C3=C(C)[C@@H](O)C[C@@](O)([C@@H](OC(=O)c4ccccc4)[C@H]21)C3(C)C [10-deacetylbaccatin III]
Relative IC50, cytotoxicity (KB cells) (KB cells; human): 400

SMILES: CC(=O)OC[C@@]1(O)[C@H]2[C@H](OC(=O)c3ccccc3)[C@]3(O)C[C@H](OC(=O)[C@H](O)[C@@H](NC(=O)c4ccccc4)c4ccccc4)C(C)=C([C@@H](OC(C)=O)C(=O)[C@]2(C)[C@@H](O)C[C@@H]1O)C3(C)C [20-acetoxy-4-deacetyl-5-epi-20,0-secotaxol]
Affinity lower than taxol (orders of magnitude) ([1]; RIA, lower than taxol): about 3 orders of magnitude
Relative IC50, cytotoxicity (KB cells) (KB cells; [6]): > 100,000

SMILES: CC(=O)O[C@H]1C(=O)[C@@]2(C)[C@H]([C@H](OC(=O)c3ccccc3)[C@]3(O)C[C@H](O)C(C)=C1C3(C)C)[C@]1(OC(C)=O)CO[C@@H]1C[C@@H]2O [Baccatin III, baccatin III]
Affinity lower than taxol (orders of magnitude) [1]: about 3 orders of magnitude
Relative IC50, cytotoxicity (KB cells) (KB cells; human): 1,700

SMILES: C/C=C(\C)C(=O)N[C@@H](c1ccccc1)[C@@H](O)C(=O)O[C@H]1C[C@@]2(O)[C@@H](OC(=O)c3ccccc3)[C@@H]3[C@]4(OC(C)=O)CO[C@@H]4C[C@H](O)[C@@]3(C)C(=O)[C@H](OC(C)=O)C(=C1C)C2(C)C [Cephalomannine, cephalomannine]
Affinity of rabbit antibodies (in words) ([1]; RIA): almost equal affinity
Binding affinity of 29B7B3C (in words) (29B7B3C; competitive ELISA): higher binding affinities
Relative IC50, cytotoxicity (KB cells) (KB cells; [6]): 3.2

SMILES: CC(=O)O[C@H]1C(=O)[C@@]2(C)[C@H]([C@H](OC(=O)c3ccccc3)[C@]3(O)C[C@H](OC(=O)[C@H](O)[C@@H](NC(=O)c4ccccc4)c4ccccc4)C(C)=C1C3(C)C)[C@]1(OC(C)=O)CO[C@@H]1C[C@@H]2O [Taxol]
Affinity of rabbit antibodies (in words) ([1]; RIA): almost equal affinity
Binding affinity of 29B7B3C (in words) (29B7B3C): higher binding affinities
IC50 (29B7B3C; ELISA, 29B7B3C): ~100 nM
Binding affinity / recognition by 69E4A8E (in words) (69E4A8E): higher binding affinities
IC50 (69E4A8E; ELISA, 69E4A8E): ~100 nM
Binding by all antibodies (in words) [2]: bind taxol and active derivatives well
Cmax [3]: > 600 nM
Clinical efficacy [4]: affective in the treatment of ovarian (5, 6) and breast cancer (7) and melanoma (8)
Side effects [5]: neutropenia, hypersensitivity reactions mucositis, neurological and possible cardiac toxicity
Effect on microtubule assembly / tubulin polymerization (microtubules / tubulin): promote and stabilize microtubule assembly and inhibit disassembly to tubulin
Antitumor activity (tumor): shown to have antitumor activity

Affinity lower than taxol (fold) ([1]; RIA, lower affinity than taxol): 100 fold
Binding affinity of 29B7B3C (in words) (29B7B3C; competitive ELISA): binds taxotere as well as it does taxol
SMILES: CC(=O)O[C@@]12CO[C@@H]1C[C@H](O)[C@@]1(C)C(=O)[C@H](O)C3=C(C)[C@@H](OC(=O)[C@H](O)[C@@H](NC(=O)OC(C)(C)C)c4ccccc4)C[C@@](O)([C@@H](OC(=O)c4ccccc4)[C@H]21)C3(C)C [Taxotere]
Affinity of rabbit antibodies (in words) ([1]; RIA): inability of the rabbit serum and 69E4A8E to recognize taxotere
Binding affinity / recognition by 69E4A8E (in words) (69E4A8E; competitive ELISA): recognized poorly; also recorded: inability of the rabbit serum and 69E4A8E to recognize taxotere

SMILES: COc1cc([C@@H]2c3cc4c(cc3[C@H](O)[C@H]3COC(=O)[C@H]23)OCO4)cc(OC)c1OC [podophyllotoxin]
Effect on microtubule assembly / tubulin polymerization (microtubules / tubulin): inhibit tubulin polymerization

SMILES: CC[C@]1(O)C[C@@H]2CN(CCc3c([nH]c4ccccc34)[C@@](C(=O)OC)(c3cc4c(cc3OC)N(C)[C@H]3[C@@](O)(C(=O)OC)[C@H](OC(C)=O)[C@]5(CC)C=CCN6CC[C@]43[C@@H]65)C2)C1 [vinblastine]
Effect on microtubule assembly / tubulin polymerization (microtubules / tubulin): inhibit tubulin polymerization
